The test system of assay [1] is T1, kindlin-3 PH domain, two lysines within the β1–β2 loop mutated.
T1 construct: kindlin-3 PH domain (residues 344–479); His6-GST (tandem), followed by HRV-3C site (N, cleaved yes); made in house; host or cells: BirA+ Escherichia coli strain
Put plainly: SPR, immobilised kindlin-3 PH domain with two β1–β2 loop lysines mutated, lipid nanodiscs as analyte. It is filed as binding, mouse. As to conditions: site-directed mutagenesis of two lysines within the β1–β2 loop. The procedure:
(§1) The observation in MD simulation that multiple phosphoinositol molecules may bind to more than one site on a single PH domain (Figures 2 and 3) led us to attempt further verification of this mode of interaction experimentally. […] To study the effect of phosphatidylinositol lipid concentrations on their binding by PH domains, we performed the SPR experiments in an inverted set-up. The biotinylated PH domain was immobilised onto the sensor chip and the nanodiscs were prepared as the analyte.
SPR experiments were performed using a Biacore T200 machine (GE Healthcare Life Sciences) at 20°C in 10 mM HEPES (pH 7.5) and 150 mM NaCl. PtdIns(4,5)P2 (C-45B6a) and PtdIns(3,4,5)P3 (C-39B6a) were purchased from Echelon Biosciences. The BIAcore CM5 chip (GE Healthcare Life Sciences) was firstly covered with streptavidin following the manufacturer's instructions before the biotinylated PIPs or biotinylated proteins were immobilised. The analyte with twofold serial dilutions was applied at a flow rate of 20 µl/min for 180 s followed by 600 s of dissociation time. The biosensor chip was regenerated after each sample injection cycle with a different buffer in the two experimental set-ups: in the case of immobilised PIPs on the sensor chip, 0.1% SDS was used; when the PH domain was immobilised, then the surface was regenerated by 2 M MgCl2. […]

Assay [2] addresses T2, kindlin-3 PH domain (Mus musculus, UniProt Q8K1B8).
T2 construct: kindlin-3 PH domain (residues 344–479); His6-GST (tandem), followed by HRV-3C site (N, cleaved yes); made in house; host or cells: BirA+ Escherichia coli strain
Put plainly: SPR, immobilised biotinylated kindlin-3 PH domain as ligand, lipid nanodiscs as analyte. Format: binding. The procedure: as §1
POPC and POPE (1-palmitoyl-2-oleoyl-sn-glycero-3-phosphoethanolamine) were purchased from Avanti Polar Lipids, and PtdIns(4,5)P2 (P-4516), PtdIns(3,4,5)P3 (P-3924), and Ins(1,3,4,5)P4 (Q-1345) were purchased from Echelon Biosciences. Nanodiscs were prepared following standard protocols. Briefly, to prepare nandiscs containing 5% (mol/mol) PtdIns(3,4,5)P3, a mixture of 200 µl of 10 mg/ml POPC, 200 µl of 10 mg/ml POPE together with 670 µl of 0.5 mg/ml PtdIns(3,4,5)P3 in chloroform were dried on a clean Pyrex tube under argon. Chloroform residue was then removed by desiccation in a desiccator attached on a VARIO-SP diaphragm pump (Vacuubrand). The lipid film was subsequently hydrated by adding 1 ml of solubilisation buffer [20 mM HEPES (pH 7.5), 150 mM NaCl, and 17 mM Na-cholate] followed by vigorous votexing. […]

Assay [3] addresses T3, Grp1 PH domain (Homo sapiens, UniProt O43739).
T3 construct: UniProtKB: O43739) PH domain (residues 264–392) were cloned into a pOPINJ vector; His6-GST (tandem), followed by HRV-3C site (N, cleaved yes); made in house; host or cells: E. coli (same protocol as kindlin-3 PH, B834)
T3 sequence (O43739 264-392): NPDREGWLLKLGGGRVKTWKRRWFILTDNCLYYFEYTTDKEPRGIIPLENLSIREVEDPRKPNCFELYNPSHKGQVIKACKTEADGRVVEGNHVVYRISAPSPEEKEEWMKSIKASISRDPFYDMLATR
Put plainly: SPR, immobilised lipid headgroup as ligand, Grp1 PH domain as analyte. It is filed as binding. The source says:
We further asked whether our observations are specific to the kindlin-3 PH domain (and similar domains) or could also be shown for PH domains which are already known to bind to inositol phosphate species in a classical, 1:1 interaction mode. If they could be shown for such well-characterised domains, then our results with the kindlin-3 PH domain would seem questionable. […] So, in the case of Grp1, there is only a five times difference in affinity between immobilised lipid headgroups and whole lipids in a lipid nanodisc (rather than the ∼100× enhancement observed with the kindlin-3 PH domain).
SPR experiments were performed using a Biacore T200 machine (GE Healthcare Life Sciences) at 20°C in 10 mM HEPES (pH 7.5) and 150 mM NaCl. PtdIns(4,5)P2 (C-45B6a) and PtdIns(3,4,5)P3 (C-39B6a) were purchased from Echelon Biosciences. The BIAcore CM5 chip (GE Healthcare Life Sciences) was firstly covered with streptavidin following the manufacturer's instructions before the biotinylated PIPs or biotinylated proteins were immobilised. The analyte with twofold serial dilutions was applied at a flow rate of 20 µl/min for 180 s followed by 600 s of dissociation time. […]

For assay [4], the target named is T3, Grp1 PH domain. Also noted: method as in PMID 26977543. As to conditions: same method; ref [34]; cited from earlier work.
Assay [5] concerns the target T2, kindlin-3 PH domain. Put plainly: SPR, immobilised biotinylated lipid headgroup as ligand, kindlin-3 PH domain WT as analyte. Format: binding. The source says: To verify the potential interaction between clustered phosphatidylinositol phosphates and the kindlin-3 PH domain observed in our MD simulations, we conducted surface plasmon resonance (SPR) experiments. Firstly, a biotinylated inositol phosphate was immobilised onto a streptavidin-derivatised sensor chip, as in previous studies. The use of streptavidin-mediated immobilisation meant that the distance separating individual lipids would be larger than the size of the tetrameric streptavidin, and therefore than the PH domain itself, meaning that one PH domain would be able to bind no more than one lipid headgroup simultaneously, imposing one-to-one binding in the interaction (Figure 4A). […] We note that, in the MD simulation with the mutated form of the kindlin-3 PH domain, the protein is capable of binding to the bilayer in a similar orientation to the wild type (WT); however, in many simulations, it quickly dissociates from the bilayer (Supplementary Figure S8). A naturally occurred IPRR (isoleucine–proline–arginine–arginine) insertion in the β1–β2 loop of kindlin-3 has been reported to disable integrin activation and thus lymphocyte adhesion and migration.
SPR experiments were performed using a Biacore T200 machine (GE Healthcare Life Sciences) at 20°C in 10 mM HEPES (pH 7.5) and 150 mM NaCl. PtdIns(4,5)P2 (C-45B6a) and PtdIns(3,4,5)P3 (C-39B6a) were purchased from Echelon Biosciences. The BIAcore CM5 chip (GE Healthcare Life Sciences) was firstly covered with streptavidin following the manufacturer's instructions before the biotinylated PIPs or biotinylated proteins were immobilised. The analyte with twofold serial dilutions was applied at a flow rate of 20 µl/min for 180 s followed by 600 s of dissociation time. The biosensor chip was regenerated after each sample injection cycle with a different buffer in the two experimental set-ups: in the case of immobilised PIPs on the sensor chip, 0.1% SDS was used; when the PH domain was immobilised, then the surface was regenerated by 2 M MgCl2. The data were fit with a 1:1 Langmuir adsorption model (B = BmaxC/(KD + C), where B is the response of bound analyte and C is the concentration of the analyte in the sample to calculate the dissociation constant (KD) using the BIAanalysis software. The molecular mass of the nanodiscs for SPR analysis was estimated to be 120 kDa.

[6] abbreviates: immobilised headgroup on streptavidin chip, WT PH domain as analyte, 20°C, 10 mM HEPES pH 7.5, 150 mM NaCl, 1:1 Langmuir fit, read-out: dissociation constant (KD).

Like-named read-outs stand apart in the source and are kept apart here.

T2 sequence (Q8K1B8 344-479): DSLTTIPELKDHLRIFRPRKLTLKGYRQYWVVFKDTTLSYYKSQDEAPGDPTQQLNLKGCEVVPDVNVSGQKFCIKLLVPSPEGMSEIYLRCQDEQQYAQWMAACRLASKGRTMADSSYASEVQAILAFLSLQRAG

As to PtdIns(3,4,5)P3, the “nanodisc binding to the PH domain (in words)” value (in assay [1]; at kindlin-3 PH domain [2] (PtdIns(3,4,5)P3 composition reduced to 1% of nanodisc lipids)) was “abolishes nanodisc binding” each time. Moreover, the Bmax on Grp1 PH domain [3] (immobilised PtdIns(3,4,5)P3 headgroup) was determined as 7150 RU. In addition, the Kd was 2.8 ± 0.4 µM on Grp1 PH domain [3] (immobilised headgroup); approximately 300 µM on kindlin-3 PH domain [5] (immobilised headgroup on streptavidin chip, WT PH domain as analyte, 20°C, 10 mM HEPES pH 7.5, 150 mM NaCl, 1:1 Langmuir fit, listed as PIP3, read-out: dissociation constant (KD)); 300 µM on kindlin-3 PH domain [5] (setting [6]). Besides, at Grp1 PH domain [4], the PMF well depth is -22.2 kJ/mol.

Regarding PtdIns(4,5)P2, on kindlin-3 PH domain [2] (inositol phosphate lipid 5% of total lipids in nanodisc), the “nanodisc binding to the PH domain (in words)” value was “no affinity”. The PMF well depth at Grp1 PH domain [4] was -15.9 kJ/mol. The dissociation constant Kd at kindlin-3 PH domain [5] (setting [6]) came to 1100 µM; at kindlin-3 PH domain [5] (immobilised headgroup, PH domain as analyte, as given in the abstract, read-out: affinity (KD)), 1000 µM.

The values are drawn from publication PMC5290484, “Structure and lipid-binding properties of the kindlin-3 pleckstrin homology domain” (Biochemical Journal, 2017).
